A value given as a limit tells only on which side of the number the result lay.

In the case of `Fc1c(F)c(-c2c(F)c(F)c(Oc3cccc4ccccc34)c(F)c2F)c(F)c(F)c1Oc1cccc2ccccc12`, the melting point is 189 to 191 °C.
Compound `CCC(CC)(CO)CCS(N)(=O)=O` had a melting point of 79 to 80 °C.
In turn, `O=C(c1cccc(NC(=O)c2ccn3c2CSC3c2cccnc2)c1)c1ccccn1` (centres undefined) registered a melting point of 165 °C.
For `NC(=O)CN1CC[C@@H](O)C1=O` the value was 195 to 196 °C; for `CC(C)n1c(C=O)c(-c2ccc(F)cc2)c(-c2ccccc2)c1C(=O)Nc1ccccc1`, 222 to 224 °C; for `COc1cc(C(=O)O)ccc1-c1ccc(-c2ccccc2)c(-c2ccc3c(c2)C(C)(C)CCC3(C)C)c1`, 144 to 146 °C.
For `COc1ccc(-c2nc(CCC(=O)O)oc2-c2ccccc2)cc1` the value was 118 to 120 °C.
`Cc1cc2c(cc1Cl)N(C)C(=O)C2(NC(=O)CN1CCN(C)CC1)c1ccc(Cl)cc1` (centres undefined): the melting point lay within 217 to 219 °C.
For `Nc1cccc2c1Cc1ccccc1C2=O` the value was 158 to 161 °C; for `COc1ccc(C2CC(c3ccccc3)=NN2c2ccc(C(=O)O)cc2)cc1` (centres undefined), 226 °C; for `CCOc1cc2ncc(Nc3cccc(F)c3)nc2cc1OCC`, 193 °C.
`CCOCCOCCOCCOc1cc(OCCCCCCCCCCCCOc2ccccc2)cc(N(CC(=O)O)CC(=O)O)c1` had a melting point of 58 to 61 °C.
`CNc1cc(C)c(O)c(C)c1C` displayed a melting point of 120 to 122 °C.
`CC(=O)Nc1cc(Br)ccc1S(C)(=O)=O`: the melting point was 157 to 160 °C.
For `Cc1cccc(C(O)c2ccc(N)cc2)n1` (centres undefined) the value was 165 to 166 °C; for `COc1cc(OC)nc(C(C(N)=O)c2cccc(Cl)c2)n1` (centres undefined), 118 to 119 °C; for `CC12C=CC(=O)C=C1C(SC#N)C(O)C1C2CCC2(C)C(=O)CCC12` (centres undefined), 206 to 208 °C.
`CCCc1nc2c(N)nc3cc(OCCCNC(=O)c4cccnc4)ccc3c2n1CC(C)C` returned a melting point of 172 to 174 °C.
For `COc1cc(CF)nc(N)n1` the value was 119 to 121 °C; for `COC(=O)Cc1ccc(C(=O)c2ccc(C)cc2)n1C`, 117 to 118 °C; for `NS(=O)(=O)c1cc(C(=O)O)cc(SCc2ccccc2)c1-c1ccccc1`, 114 to 120 °C.
The compound `Cn1ccc2ccc(OCc3ccccc3)cc21` returned a melting point of 79 °C.
As to `Cc1ccc(-c2cn(C)cc(-c3cccc(C(F)(F)F)c3)c2=O)cc1C`, the melting point was in the range of 150 to 153 °C.
For `O=C(NCCSCc1cccc(I)c1)c1c(Cl)cccc1Cl` the value was 75 to 78 °C; for `CC(=O)C(C)(C)C(Cl)C=Cc1ccccc1` (centres undefined), 71 °C; for `COC(=O)c1ccccc1C=C1C(=O)Nc2ccc(S(=O)(=O)NC(C)C)cc21`, 271 to 273 °C.
For `CCOC(=O)c1ccc(NC(=O)C=C(C)c2ccc(Cl)cc2)cc1` the value was 150 to 152 °C; for `NC(=O)c1c(Cl)c(-c2ccccc2)n2c1CN(S(=O)(=O)c1ccc(-c3ccon3)s1)CC2`, 186 to 190 °C; for `O=CNCCCCCCO`, 43.5 to 45 °C.
In turn, `O=CN1C(=O)NC(=O)C12C(=O)N(Cc1ccc(Cl)c(Cl)c1)c1ccccc12` (centres undefined) registered a melting point of 244 to 246 °C.
For `O=C(O)c1ccc(OCc2ccccc2)cc1O` the value was 179 to 180 °C; for `COc1nn(Cc2ccc(OCc3nc(-c4ccccc4)oc3C)cc2)cc1CCC(=O)O`, 127 to 128 °C.
Turning to `O=C1NC(=O)C(c2cccc(C(F)(F)F)c2)O1` (centres undefined), the melting point lay in the range of 93 to 96 °C.
For `C(=C(c1ccccc1)N(c1ccccc1)c1ccccc1)c1cccc2ccccc12` the value was 170 to 172 °C; for `CC1=NC(C)c2nnc(-c3ccc(Cl)cc3)n2-c2ccccc21` (centres undefined), 230 °C.
Regarding `N#Cc1ccc(N2CCOCC2)c(NC(N)=S)c1`, the melting point fell in the range of 193 to 194 °C.
For `CCOC(=O)c1ccccc1-n1cnc2c(C)c(C(=O)OCC)c(C)cc2c1=O` the value was 116 to 117 °C.
For `CCCCn1c(=O)c2c(ncn2S(=O)(=O)c2c(C)cc(C)cc2C)n(CCCC)c1=O` the value was 125 to 127 °C; for `CCOC(=O)CCc1cc(Cl)ccc1C(=O)CCCNC(=O)CCCNC(C)=O`, 95 °C; for `CC(=O)OCC1CC(=O)NN=C1c1ccc(N2CCOCC2)c(C#N)c1` (centres undefined), 60 to 69 °C.
For `CCOCc1nc2c(N)nc3cc(OCCN4CCOCC4)ccc3c2n1CC(C)(C)O` the value was 161 to 163 °C; for `Cc1c(-c2ccc(C(=O)O)cc2)ccc(-c2ccccc2)c1-c1ccc2c(c1)C(C)(C)CCC2(C)C`, 130 to 132 °C.
Regarding `C=CCc1c(O)c(Cl)cc(F)c1N1C(=O)c2ccccc2C1=O`, the melting point lay within 134 to 136 °C.
In turn, `CCCCCCCCc1ccc(S(=O)(=O)Nc2nncs2)cc1` came in with a melting point of 123 to 124 °C.
The compound `O=C(O)c1ccc(Cn2ccc(OCc3ccccc3)c(Br)c2=O)cc1` gave a melting point of 251 to 256 °C.
`COC(=O)c1ccc(-c2cc(=O)c3ccc(N)cc3o2)cc1` registered a melting point of over 260 °C.
For `Cc1cc(C)c(CC(=O)c2ccc(C(C)C)c(OS(N)(=O)=O)c2C(C)C)c(C)c1` the value was 159 to 161 °C.
Compound `COC(=O)[C@H](Cc1c(Br)[nH]c2cc(Br)c(OC)cc12)NC(C)=O` displayed a melting point of 174 to 175 °C.
For the compound `COc1ncccc1Oc1cc(-n2c(=O)cc(C(F)(F)F)n(C)c2=O)c(F)cc1Cl`, the melting point stood at 180 °C.
For `COc1ccc(OC)c(S(=O)(=O)Nc2ccccc2/C=C/c2ccncc2)c1` the value was 193 to 195 °C; for `CCOC(=O)C1(C)C(=O)Nc2cc(NC(=O)c3ccncc3)ccc21` (centres undefined), 222 to 224 °C.
For `Nc1cc2nc(O)c(O)nc2c2ccccc12` the value was over 300 °C.
Compound `COc1ccccc1Oc1c(Cl)nc(SC)nc1NS(=O)(=O)c1ccc(C(C)(C)C)cc1` yielded a melting point of 123 to 124 °C.
For `CNC(=O)NCC1OC(n2cc(C)c(=O)[nH]c2=O)CC1O` (centres undefined), the melting point is 238 to 239 °C.
On to `Cc1[nH]c2ccccc2c1CCN1CCN(C(c2ccc(F)cc2)c2ccc(F)cc2)CC1`, for which the melting point lay within 65 to 73 °C.
As for `OCC1OC(n2cc(COc3ccc(C4=NC(=Nc5[nH]c(-c6ccc(O)cc6)cc5-c5ccccc5)C(c5ccccc5)=C4)cc3)nn2)C(O)C(O)C1O` (centres undefined), the melting point was in the range of 180 to 182 °C.
For `Cc1ccc(C(=O)Nc2ccc(C#N)cc2)cc1Nc1ncc(-c2cccnc2)o1` the value was 203 °C.
`O=S(=O)(On1nnc2ccc(Cl)cc21)c1ccccc1`: the melting point is 110 °C.
For `CCCCN1C(=O)NC(=Cc2ccc(C(=O)OC)cc2)C1=O`, the melting point is 212 °C.
For `CC(=O)C1=C(O)C(=C(C)Nc2ccccc2N)C(=O)OC1=O` the value was 179 to 181 °C; for `O=C1NCCCCC1Cc1ccccc1` (centres undefined), 99 to 104 °C; for `Clc1ccc(CNc2cccnc2)cc1`, 107 to 108 °C.
In turn, `COC(=O)C1=C(C#N)NC(C)=C(C(=O)OCC(C)(C)C)C1c1ccccc1C#N` (centres undefined) returned a melting point of 173 to 174 °C.
For `CCCCSc1nc2c(cc1C#N)C(=O)CC(C)(C)C2`, the melting point is 50 to 52 °C.
For `CS(=O)(=O)Oc1ccccc1S(=O)(=O)Cl` the value was 94 to 95 °C; for `CC(C)n1nc(-c2sc(C(=O)N3CCCC3)nc2-c2ccccc2)ccc1=O`, 169 to 170 °C; for `Nc1ccc2ccc(-c3ccc(F)cc3)nc2n1`, 175 °C.
For `CC(C)(C)OC(=O)NCCc1c[nH]c2ccc(Oc3ccccc3)c(Cl)c12` the value was 163 to 166 °C; for `CCOC(=O)c1cnc2c(O)nccn2c1=O`, over 300 °C; for `Cc1cc(C#N)nc(Cl)n1`, 57 °C.
For `O=C(O)c1ccc(OCCCN(CCO)c2ccc(Cl)cc2)cc1` the value was 120 to 122 °C; for `CCn1c(=O)ccc2cnc(Nc3ccc(N4CCOCC4)cc3)nc21`, 227 to 228 °C.
As to `CC(=O)Oc1c(C(C)(C)C)cc(C=[N+]([O-])CC(C)C)cc1C(C)(C)C`, the melting point was 177 to 180 °C.
Compound `COc1ccc2c(=O)c(N)coc2c1` came in with a melting point of 143 to 146 °C.
Consider `CCc1nc(C(=O)c2ccc(Cl)cc2Cl)c(C(C)=O)n1C(CC)CC`, for which the melting point lay within 63 to 64 °C.
For the compound `COC(=O)Cc1ccc(OCC(C)NCC(O)c2cccc(F)c2)cc1` (centres undefined), the melting point was determined as 52 °C.
For `O=C(O)CN(Cc1cccc(Cn2cc(C3c4ccccc4C=Cc4ccccc43)c(=S)[nH]c2=O)c1)C(=O)OCc1ccccc1` the value was 120 °C; for `Cc1c(OCC(F)(F)F)ccnc1CS(=O)c1nc2cc(N3CCCCC3)c(F)cc2[nH]1` (centres undefined), 99 to 100 °C; for `CC(=O)Nc1sc([N+](=O)[O-])cc1C(=O)O`, 238 to 240 °C.
For `O=[N+]([O-])c1cc([N+](=O)[O-])c(OCCO)cc1Cl` the value was 98 to 100 °C; for `C#CCNC(=O)c1ncn2c1[C@@H]1CCN1C(=O)c1sccc1-2`, 233 to 235 °C; for `CC(C)(C)OC(=O)N[C@@H](Cc1ccccc1)C(=O)NCCC(=O)OCc1ccccc1`, 93 to 96 °C.
Compound `O=c1ccn(C2C=CC(COC(c3ccccc3)(c3ccccc3)c3ccccc3)O2)c(=O)[nH]1` (centres undefined) returned a melting point of 188 to 191 °C.
For `COc1ncnc(OC)c1N(C(=O)CCl)C(C)n1cccn1` (centres undefined) the value was 124 to 126 °C; for `COC1CC2(C)C(CCC3C4CCC(C(=O)CBr)C4(C)CC(=O)C32)CC1O` (centres undefined), 185 to 188 °C.
For `O=[N+]([O-])c1cccc2c1sc1c(Nc3cccc(Br)c3)ncnc12` the value was 247 to 248 °C; for `Cc1cc(N)cnc1CCCC#N`, 103 to 105 °C.
`CN1C(=O)CC[C@]2(C)c3ccc(C(=O)OC(c4ccccc4)c4ccccc4)cc3CC[C@@H]12`: the melting point is 130 to 131 °C.
In the case of `Cc1nc2c3c(c(C(=O)O)cc2n1C)CCC(c1ccccc1)N3` (centres undefined), the melting point was 325 to 326 °C.

What is called melting point is the temperature of the solid-liquid transition.

For the origin of these results see a melting point compilation (Tetko et al.; mined from patent text by program, amines drawn as free bases though some values may be those of a salt).
